Measurements reported in publication PMC8717366, “Synthesis and Pharmacological Characterization of Visabron, a Backbone Cyclic Peptide Dual Antagonist of α4β1 (VLA-4)/α9β1 Integrin for Therapy of Multiple Sclerosis” (JACS Au, 2021).
Like-named read-outs stand apart in the source and are kept apart here. Numbered stars: 1 amine (or outer) side, 2 acyl side, 3 side chain; on linkers, the order of the positions; unused ones are H or OH. Bridge positions count the residues as written; N and C are the ends. Square brackets hold non-standard residues; d marks the D form. Peptide text beside a SMILES is read from it. N(6-aminohexyl)Gly = O=C(CN(CCCCCCN[*:3])[*:1])[*:2]; CO = O=C([*:1])[*:2]

What was measured:
[1] = molecular target: T1, α4β1 (Jurkat lymphocytes-VCAM-1) (Homo sapiens, UniProt P05556+P13612); assay: Adhesion of Jurkat lymphocytes to immobilized VCAM-1; assay type: cell-based
T1 construct: host or cells: Jurkat (untreated or TNFα-treated)
Experimental: (§1) Cell adhesion assay was carried out as previously described[47] with minor modifications. The day before the experiment, each well was coated with VCAM-1 (3 mg/mL) immobilized on the 96-well plate in PBS by overnight incubation at 4 °C. Thereafter, nonspecific binding was blocked by incubating the wells with 1% (w/v) bovine serum albumin (BSA) in Hank’s Balanced Salt Solution (HBSS) containing 5 mM MgCl2 at room temperature for 1 h before use. The cells were labeled by incubation with 12.5 μM 5-chloromethylfluorescein diacetate (CMFDA) in HBSS without 1% BSA at 37 °C for 30 min. The labeled cells were then centrifuged at 1000 rpm and washed twice with HBSS containing 1% BSA to remove excess CMFDA. Labeled cells (about 1 × 10^5 cells/well) were plated on each well in the presence or absence of visabrons and incubated at 37 °C for 60 min. Unbound cells were removed by washing the wells three times with 1% (w/v) BSA in HBSS, and bound cells were lysed by the addition of 0.5% Triton X-100 (diluted in DDW). The fluorescence in each well was quantified with a SPECTRAFluor Plus plate reader (Tecan), at λex = 485 nm and λem = 530 nm. To determine the number of adhered cells from the fluorescence values, a standard curve was generated by serial dilution of known numbers of CMFDA-labeled cells. […]
(§2) Table S6. TMLD- linear peptides inhibition of adhesion of integrin expressing cells to the respective immobilized ligands a a The cells were incubated for 30 min at 37 °C with the cells (1 x 105) in the 96 -well plate, previously covered with extracellular matrix ligand, in 100 µL of HBSS containing calcium and magnesium. After being washed with the same buffer, the adhered cells were lysed by Triton X-100, and the plate was read using Tecan spectrofluorimeter. The inhibitory dose 50% (IC 50) values represent ing mean ± standard deviatio ns (n=6) were calculated from dose response curves. bJurkat cells,VCAM -1; c α9-SW480 overexpressing cells, VCAM-1; d α1-K562 overexpressing cells, collagen IV ;e α2-K562 overexpressing cells, collagen I; f K562 wild type

[2] = assay type: in vitro ADME, male Wistar rats; settings: incubation in rat plasma, 37 °C
Experimental: Figure S7- Metabolic stability of linear (blue) and cyclic Visabrons in rat plasma (n=3) […]
(orange, green, red). The […]
amount of peptides is presented as a percentage of the sample at time 0.
Figure S8- A. Calibration curve of Visabron c(4-4) (prepared by spiking the standard working stock solution with 15 μl of the different concentration, 20 μl metoprolol (10 μg/mL) and 135 -μl blank rat plasma. B. Profile of plasma concentration of Visabron c(4-4) vs time in rats following i.v. bolus administr ation of 0.515 mg/kg; C. semi - logarithmic plot of plasma concentration of Visabron c(4-4) vs time (n = 4 , mean ± SD). […]
For peptide sequencing, the protein digest mixture was subjected to electrospray ionization MS/MS analysis using a QTrap mass spectrometer, equipped with a nanospray source. […] Quantitation of free cysteine residues and disulfide bonds was done as previously described4. […]

α1β1-collagen IV = molecular target: T2, α1β1-collagen IV (Homo sapiens, UniProt P05556+P56199); assay: Adhesion of α1-K562 overexpressor cells to immobilized collagen IV; assay type: cell-based
T2 construct: expressed in transfected cells; host or cells: K562 transfected with α1 integrin (gift of Dr. M. Hemler)
Experimental: as §1, §2

α2β1-collagen I = molecular target: T3, α2β1-collagen I (Homo sapiens, UniProt P05556+P17301); assay: Adhesion of α2-K562 overexpressor cells to immobilized collagen I; assay type: cell-based
T3 construct: expressed in transfected cells; host or cells: K562 transfected with α2 integrin (gift of Dr. M. Hemler)
Experimental: as §1, §2

α5β1-fibronectin = molecular target: T4, α5β1-fibronectin (Homo sapiens, UniProt P05556+P08648); assay: Adhesion of wild-type K562 cells to immobilized fibronectin; assay type: cell-based
T4 construct: host or cells: K562 wild type
Experimental: as §1, §2

α9β1 = molecular target: T5, α9β1 (Homo sapiens, UniProt P05556+Q13797); assay: Adhesion of α9-SW480 overexpressing cells to VCAM-1; assay type: cell-based; settings: n=6, Table S6, read-out: IC50 α9β1 (linear peptides)
T5 construct: generated by transfection with full-length α9 expression plasmid pcDNAIneoa9; expressed in transfected cells; host or cells: SW480 transfected with pcDNAIneoa9
Experimental: as §2, with “type […]” for “type”
(1 picture or pasted object on this page, not shown here)

α4β7-MAdCAM-1 Fc chimera = molecular target: T6, α4β7-MAdCAM-1 Fc chimera (Homo sapiens, UniProt P13612+P26010); assay: ELISA solid-phase ligand-receptor binding, integrin α4β7 to MAdCAM-1 Fc chimera
T6 construct: purchased R&D Systems Co (Minneapolis, MN)
Experimental: (§3) Recombinant human VCAM-1 and MadCAM-1 (3 mg/mL in phosphate-buffered saline containing divalent cations), were immobilized on the wells of a 96-well ELISA plate (Dynatech Immulon) by overnight incubation at 4 °C. After washing with HBSST (Hanks’ Balanced Salt solution containing calcium and magnesium and 0.05% Tween-20) the plates were blocked with 5% BSA in HBSST by incubation at 37 °C for 1 h. The plates were washed with HBSST, and recombinant human integrin α4β1 or α4β7 (3 mg/mL) was added in the presence or absence of competitor cyclic peptides, disintegrins, or monoclonal anti-integrin antibodies dissolved in HBSS containing 1% BSA. The plates were thereafter incubated at 30 °C for 3 h, as time-binding had reached a plateau, and then washed 3 times with HBSST. Bound integrins were quantitated using primary anti-integrin polyclonal and monoclonal antibodies at a concentration of 0.5 mg/mL in HBSST containing 1% BSA, and incubated at 37 °C for 1 h. The plates were washed 3 times with HBSST and secondary antibodies- alkaline phosphatase (AP) conjugated (Sigma Co.) were added at dilution 1:1000 and incubated at 37 °C for 1 h. Thereafter, the plates were washed 3 times with HBSST and twice with HBSS and the alkaline phosphatase substrate 4-nitrophenyl phosphate was added to the wells for 30 min. The plates were read using Tecan Spectrophotometer at 405 nm. The level of nonspecific binding was measured in each experiment by determining the level of binding to wells coated with BSA alone.

α4β1-VCAM-1 Fc chimera = molecular target: T7, α4β1-VCAM-1 Fc chimera (Homo sapiens, UniProt P05556+P13612); assay: ELISA solid-phase ligand-receptor binding, integrin α4β1 to VCAM-1 Fc chimera
T7 construct: purchased R&D Systems Co (Minneapolis, MN)
Experimental: as §3

α9β1-VCAM-1 Fc chimera = α9β1-VCAM-1 Fc chimera (Homo sapiens, UniProt P05556+Q13797); assay: ELISA binding assay, α9β1 to VCAM-1 Fc chimera
[3] = system: U937 macrophages-VCAM-1 (α4β1, αMβ2, α3β1, α6β1); assay: Adhesion of U937 macrophages to immobilized VCAM-1; assay type: cell-based, human
Experimental: Cell adhesion assay was carried out as previously described[47] with minor modifications. The day before the experiment, each well was coated with VCAM-1 (3 mg/mL) immobilized on the 96-well plate in PBS by overnight incubation at 4 °C. Thereafter, nonspecific binding was blocked by incubating the wells with 1% (w/v) bovine serum albumin (BSA) in Hank’s Balanced Salt Solution (HBSS) containing 5 mM MgCl2 at room temperature for 1 h before use. The cells were labeled by incubation with 12.5 μM 5-chloromethylfluorescein diacetate (CMFDA) in HBSS without 1% BSA at 37 °C for 30 min. The labeled cells were then centrifuged at 1000 rpm and washed twice with HBSS containing 1% BSA to remove excess CMFDA. Labeled cells (about 1 × 10^5 cells/well) were plated on each well in the presence or absence of visabrons and incubated at 37 °C for 60 min. Unbound cells were removed by washing the wells three times with 1% (w/v) BSA in HBSS, and bound cells were lysed by the addition of 0.5% Triton X-100 (diluted in DDW). The fluorescence in each well was quantified with a SPECTRAFluor Plus plate reader (Tecan), at λex = 485 nm and λem = 530 nm. To determine the number of adhered cells from the fluorescence values, a standard curve was generated by serial dilution of known numbers of CMFDA-labeled cells.

T1 sequence (P13612 34-1032): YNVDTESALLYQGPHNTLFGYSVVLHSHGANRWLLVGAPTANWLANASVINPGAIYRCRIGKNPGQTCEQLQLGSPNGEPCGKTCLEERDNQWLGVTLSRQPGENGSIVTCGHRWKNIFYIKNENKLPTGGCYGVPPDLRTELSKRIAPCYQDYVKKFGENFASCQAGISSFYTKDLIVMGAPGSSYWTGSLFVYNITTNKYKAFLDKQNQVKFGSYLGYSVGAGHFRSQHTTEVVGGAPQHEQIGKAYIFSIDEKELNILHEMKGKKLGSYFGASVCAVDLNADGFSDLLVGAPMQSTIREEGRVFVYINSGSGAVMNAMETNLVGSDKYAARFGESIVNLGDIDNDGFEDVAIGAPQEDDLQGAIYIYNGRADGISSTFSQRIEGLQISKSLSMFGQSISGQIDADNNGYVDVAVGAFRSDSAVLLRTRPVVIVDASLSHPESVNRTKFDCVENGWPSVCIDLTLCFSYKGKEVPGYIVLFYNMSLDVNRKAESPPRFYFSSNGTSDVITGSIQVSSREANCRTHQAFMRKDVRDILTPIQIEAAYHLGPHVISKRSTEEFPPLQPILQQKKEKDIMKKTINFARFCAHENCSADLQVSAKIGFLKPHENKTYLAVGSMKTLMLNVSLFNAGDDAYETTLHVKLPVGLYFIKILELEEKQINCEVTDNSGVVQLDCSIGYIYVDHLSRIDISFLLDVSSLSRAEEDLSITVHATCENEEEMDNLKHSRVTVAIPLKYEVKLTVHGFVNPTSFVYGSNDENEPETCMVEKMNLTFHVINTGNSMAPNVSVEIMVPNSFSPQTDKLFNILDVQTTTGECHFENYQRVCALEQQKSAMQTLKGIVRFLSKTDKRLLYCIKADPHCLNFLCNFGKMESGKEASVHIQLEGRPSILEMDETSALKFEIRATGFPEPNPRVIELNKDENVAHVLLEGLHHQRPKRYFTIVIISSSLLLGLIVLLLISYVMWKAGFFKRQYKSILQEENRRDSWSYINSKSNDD
T1 sequence (P05556 21-798): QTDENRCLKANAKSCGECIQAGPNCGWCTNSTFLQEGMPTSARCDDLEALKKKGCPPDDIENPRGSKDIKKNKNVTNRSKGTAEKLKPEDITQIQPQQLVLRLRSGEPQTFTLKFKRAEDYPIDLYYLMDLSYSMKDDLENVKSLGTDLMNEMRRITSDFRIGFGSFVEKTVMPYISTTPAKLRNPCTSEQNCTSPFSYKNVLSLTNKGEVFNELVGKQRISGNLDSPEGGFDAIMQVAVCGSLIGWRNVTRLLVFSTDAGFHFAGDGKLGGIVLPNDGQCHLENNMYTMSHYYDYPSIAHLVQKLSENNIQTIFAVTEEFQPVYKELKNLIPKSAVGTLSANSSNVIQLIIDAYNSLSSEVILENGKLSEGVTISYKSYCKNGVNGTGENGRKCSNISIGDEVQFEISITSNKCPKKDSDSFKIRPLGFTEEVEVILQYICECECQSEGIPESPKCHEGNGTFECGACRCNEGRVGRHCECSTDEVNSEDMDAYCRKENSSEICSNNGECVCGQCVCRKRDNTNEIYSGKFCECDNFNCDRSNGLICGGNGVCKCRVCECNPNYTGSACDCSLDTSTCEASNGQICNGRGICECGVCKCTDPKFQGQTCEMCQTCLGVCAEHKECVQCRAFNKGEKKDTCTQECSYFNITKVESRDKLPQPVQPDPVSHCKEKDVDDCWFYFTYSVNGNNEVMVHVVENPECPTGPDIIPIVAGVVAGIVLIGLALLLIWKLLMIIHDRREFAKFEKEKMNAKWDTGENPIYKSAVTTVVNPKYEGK
T3 sequence (P17301 30-1181): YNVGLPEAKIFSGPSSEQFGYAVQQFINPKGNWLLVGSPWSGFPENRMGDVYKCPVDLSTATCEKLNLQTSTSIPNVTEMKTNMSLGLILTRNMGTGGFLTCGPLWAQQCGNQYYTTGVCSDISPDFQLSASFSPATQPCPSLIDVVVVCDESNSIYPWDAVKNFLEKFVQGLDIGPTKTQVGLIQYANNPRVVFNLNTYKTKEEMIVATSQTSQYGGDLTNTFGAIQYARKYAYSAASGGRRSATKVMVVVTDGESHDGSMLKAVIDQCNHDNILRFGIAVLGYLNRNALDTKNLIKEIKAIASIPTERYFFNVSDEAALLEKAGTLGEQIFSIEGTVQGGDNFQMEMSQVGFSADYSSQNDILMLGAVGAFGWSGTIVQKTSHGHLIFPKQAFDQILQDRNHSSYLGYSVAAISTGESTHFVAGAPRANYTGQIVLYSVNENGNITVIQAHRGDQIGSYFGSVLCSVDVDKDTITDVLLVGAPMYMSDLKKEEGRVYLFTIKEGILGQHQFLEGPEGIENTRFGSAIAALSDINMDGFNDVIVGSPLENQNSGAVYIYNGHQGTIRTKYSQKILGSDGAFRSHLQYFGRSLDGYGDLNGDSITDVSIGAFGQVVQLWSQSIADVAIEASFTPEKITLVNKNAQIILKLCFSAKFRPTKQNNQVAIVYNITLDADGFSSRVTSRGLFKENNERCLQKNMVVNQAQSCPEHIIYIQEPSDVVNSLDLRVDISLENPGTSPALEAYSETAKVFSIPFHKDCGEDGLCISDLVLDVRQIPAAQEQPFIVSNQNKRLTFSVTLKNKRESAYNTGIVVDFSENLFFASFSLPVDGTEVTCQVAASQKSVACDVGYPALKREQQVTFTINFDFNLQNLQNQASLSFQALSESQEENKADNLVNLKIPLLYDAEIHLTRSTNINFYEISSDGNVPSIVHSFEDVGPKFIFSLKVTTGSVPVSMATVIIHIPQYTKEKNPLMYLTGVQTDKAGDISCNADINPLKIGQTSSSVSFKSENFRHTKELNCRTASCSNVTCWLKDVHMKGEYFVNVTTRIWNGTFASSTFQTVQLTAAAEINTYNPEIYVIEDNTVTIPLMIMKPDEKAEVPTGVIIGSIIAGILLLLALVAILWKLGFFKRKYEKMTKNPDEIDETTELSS
T3 sequence (P05556 21-798): as the sequence (P05556 21-798) above
T4 sequence (P08648 42-894 limits assumed): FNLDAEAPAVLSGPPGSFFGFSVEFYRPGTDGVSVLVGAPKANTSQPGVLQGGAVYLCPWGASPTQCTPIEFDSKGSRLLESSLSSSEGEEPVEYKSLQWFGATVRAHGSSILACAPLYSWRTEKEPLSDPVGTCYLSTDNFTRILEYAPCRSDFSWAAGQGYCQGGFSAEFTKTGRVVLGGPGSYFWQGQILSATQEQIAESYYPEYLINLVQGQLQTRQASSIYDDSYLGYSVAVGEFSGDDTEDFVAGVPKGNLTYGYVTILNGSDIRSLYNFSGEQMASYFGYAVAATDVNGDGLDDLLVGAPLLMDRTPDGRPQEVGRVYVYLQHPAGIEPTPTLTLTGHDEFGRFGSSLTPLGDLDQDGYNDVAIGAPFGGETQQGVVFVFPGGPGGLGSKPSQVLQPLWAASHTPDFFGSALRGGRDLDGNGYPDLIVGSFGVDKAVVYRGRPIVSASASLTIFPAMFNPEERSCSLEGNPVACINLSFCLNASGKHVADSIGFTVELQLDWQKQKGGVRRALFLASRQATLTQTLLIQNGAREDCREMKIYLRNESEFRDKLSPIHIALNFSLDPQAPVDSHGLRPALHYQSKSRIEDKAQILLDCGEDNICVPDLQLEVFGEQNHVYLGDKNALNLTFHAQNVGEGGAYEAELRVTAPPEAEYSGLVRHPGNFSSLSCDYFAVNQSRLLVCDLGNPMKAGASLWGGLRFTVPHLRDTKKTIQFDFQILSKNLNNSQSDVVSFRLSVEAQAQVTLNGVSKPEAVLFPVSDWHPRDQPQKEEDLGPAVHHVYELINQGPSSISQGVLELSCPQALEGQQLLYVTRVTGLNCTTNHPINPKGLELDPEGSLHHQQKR
T4 sequence (P08648 895-1049 limits assumed): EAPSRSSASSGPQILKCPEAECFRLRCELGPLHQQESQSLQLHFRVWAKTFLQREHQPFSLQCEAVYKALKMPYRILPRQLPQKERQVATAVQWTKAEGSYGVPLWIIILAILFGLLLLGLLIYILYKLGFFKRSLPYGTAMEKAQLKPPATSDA
T4 sequence (P05556 21-798): as the sequence (P05556 21-798) above
Sequence of α9β1-VCAM-1 Fc chimera (Q13797 30-1035, change not shown): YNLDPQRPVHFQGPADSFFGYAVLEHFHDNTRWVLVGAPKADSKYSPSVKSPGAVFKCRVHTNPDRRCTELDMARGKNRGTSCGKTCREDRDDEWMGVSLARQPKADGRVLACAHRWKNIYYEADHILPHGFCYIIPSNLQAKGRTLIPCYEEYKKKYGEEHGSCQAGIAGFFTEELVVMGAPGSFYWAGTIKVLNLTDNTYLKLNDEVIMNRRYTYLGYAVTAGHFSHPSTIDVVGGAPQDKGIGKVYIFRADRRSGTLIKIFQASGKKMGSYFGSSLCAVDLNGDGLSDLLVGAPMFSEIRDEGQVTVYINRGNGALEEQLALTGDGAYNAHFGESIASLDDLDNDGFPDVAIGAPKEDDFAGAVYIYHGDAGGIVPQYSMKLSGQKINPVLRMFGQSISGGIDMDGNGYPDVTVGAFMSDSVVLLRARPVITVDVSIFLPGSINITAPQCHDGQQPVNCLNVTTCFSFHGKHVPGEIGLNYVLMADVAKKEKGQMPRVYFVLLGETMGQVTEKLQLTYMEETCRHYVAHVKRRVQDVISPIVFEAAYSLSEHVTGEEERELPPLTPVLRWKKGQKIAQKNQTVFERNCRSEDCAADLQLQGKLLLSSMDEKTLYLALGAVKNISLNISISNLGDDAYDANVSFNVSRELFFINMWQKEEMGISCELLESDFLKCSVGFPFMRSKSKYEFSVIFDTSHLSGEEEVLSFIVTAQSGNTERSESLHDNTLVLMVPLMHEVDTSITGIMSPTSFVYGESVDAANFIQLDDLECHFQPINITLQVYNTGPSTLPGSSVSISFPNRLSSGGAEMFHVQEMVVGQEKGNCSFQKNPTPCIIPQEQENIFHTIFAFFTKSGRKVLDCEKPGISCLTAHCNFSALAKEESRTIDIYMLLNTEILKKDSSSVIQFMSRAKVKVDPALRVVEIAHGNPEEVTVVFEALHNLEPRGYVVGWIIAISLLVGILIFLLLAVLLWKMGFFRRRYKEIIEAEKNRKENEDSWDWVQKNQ
Sequence of α9β1-VCAM-1 Fc chimera (P05556 21-798, change not shown): as the sequence (P05556 21-798) above

| SMILES | IC50 ([1]; Jurkat cells, VCAM-1, n=6, Table S6, read-out: IC50 α4β1 (linear peptides)) [µM] | half-life [2] [min] | IC50 (α1β1-collagen IV; α1-K562 overexpressing cells, collagen IV, n=6, Table S6, read-out: IC50 α1β1 (linear peptides)) [µM] | IC50 (α2β1-collagen I; α2-K562 overexpressing cells, collagen I, n=6, Table S6, read-out: IC50 α2β1 (linear peptides)) [µM] | IC50 (α5β1-fibronectin; K562 wild type cells, fibronectin, n=6, Table S6, read-out: IC50 α5β1 (linear peptides)) [µM] | IC50 (α9β1) [µM] | IC50 (α4β7-MAdCAM-1 Fc chimera) [µM] | IC50 (α4β1-VCAM-1 Fc chimera) [µM] | IC50 ([1]; Jurkat treated with TNF-α (10 ng/mL) for 24 h, read-out: IC50 Jurkat lymphocytes-VACAM-1 TNFα) [µM] | IC50 ([1]; untreated Jurkat lymphocytes (α4β1), read-out: IC50 Jurkat lymphocytes-VACAM-1 control) [µM] | IC50 (α9β1-VCAM-1 Fc chimera) [µM] | IC50 ([3]; U937 treated with PMA (10 ng/mL) for 24 h, read-out: IC50 U937 macrophages-VCAM-1 PMA) [µM] | IC50 ([3]; untreated U937, read-out: IC50 U937 macrophages-VCAM-1 control) [µM] | IC50 (α1β1-collagen IV; α1-K562 overexpressed cells, 30 min at 37 °C, read-out: IC50 α1β1-collagen IV) [µM] | IC50 (α2β1-collagen I; α2-K562 overexpressed cells, 30 min at 37 °C, read-out: IC50 α2β1-collagen I) [µM] | IC50 (α5β1-fibronectin; wild-type K562 (α5β1), 30 min at 37 °C, read-out: IC50 α5β1-fibronectin) [µM] |
| --- | --- | --- | --- | --- | --- | --- | --- | --- | --- | --- | --- | --- | --- | --- | --- | --- |
| CSCC[C@H](NC(=O)[C@@H](NC(=O)CNC(=O)[C@@H](N)CCCCN)[C@@H](C)O)C(=O)N[C@@H](CC(C)C)C(=O)N[C@@H](CC(=O)O)C(=O)NCC(=O)N[C@@H](CC(C)C)C(N)=O [sequence 6, KG39TMLDG44L] (H-KGTMLDGL-NH2; N-terminus and C-terminus assumed) | 1550 ± 125 | 7 | > 10000 | > 10000 | > 10000 | 1450 ± 125 |  |  |  |  |  |  |  |  |  |  |
| CSCC[C@@H]1NC(=O)[C@H]([C@@H](C)O)NC(=O)CN(C(=O)[C@@H](N)CCCCN)CCCCCCNC(=O)NCCCCCCN(CC(=O)N[C@@H](CC(C)C)C(N)=O)C(=O)[C@H](CC(=O)O)NC(=O)[C@H](CC(C)C)NC1=O [visabron c (6–6)] (H-K[N(6-aminohexyl)Gly]TMLD[N(6-aminohexyl)Gly]L-NH2; linker 2-7 via CO) |  |  |  |  |  |  | > 500 | 0.7 | 4 | 5 | 0.9 | 15 | 20 | > 10000 | > 10000 | > 10000 |
